Data from patent publication US20220251091A1, “AMORPHOUS UMBRALISIB MONOTOSYLATE” (Johnson Matthey Public Limited Company, priority 2019, published 2022).

Experiments:
[1] = Dynamic vapor sorption (DVS); format: physicochemical; details: for hygroscopicity by DVS: 3 cycles
Procedure: (§1) DVS samples (5-10 mg) are analyzed using a TA Instruments Q5000 SA powerful dynamic vapor sorption analyzer. The relative humidity is started at about 50% and adjusted to between about 0-90% humidity with about a 10% increase or decrease in humidity for each step for 3 cycles. The weight of the sample is continuously monitored and recorded.

[2] = XRPD of the sample after DVS; format: physicochemical
Procedure: (§2) XRPD patterns are obtained using a Bruker D8 Advance equipped with a Cu Kα radiation source (λ=1.54 Å), a 9-position sample holder and a LYNXEYE super speed detector. Samples are placed on zero-background, silicon plate holders for analysis. One skilled in the art would recognize that the ° 20 values and the relative intensity values are generated by performing a peak search on the measured data and the d-spacing values are calculated by the instrument from the ° 20 values using Bragg's equation. One skilled in the art would further recognize that the relative intensity for the measured peaks may vary as a result of sample preparation, orientation and instrument used, for example.
as §1

[3] = XRPD after storage at about 40° C. under vacuum for about two weeks; format: physicochemical
Procedure: as §2

[4] = target: T1, PI3K-delta (Homo sapiens, UniProt O00329); details: Phase 2 trial, relapsed/refractory marginal zone lymphoma; cited from earlier work
T1 construct: host or cells: patients (clinical trial)
T1 sequence (O00329 whole entry): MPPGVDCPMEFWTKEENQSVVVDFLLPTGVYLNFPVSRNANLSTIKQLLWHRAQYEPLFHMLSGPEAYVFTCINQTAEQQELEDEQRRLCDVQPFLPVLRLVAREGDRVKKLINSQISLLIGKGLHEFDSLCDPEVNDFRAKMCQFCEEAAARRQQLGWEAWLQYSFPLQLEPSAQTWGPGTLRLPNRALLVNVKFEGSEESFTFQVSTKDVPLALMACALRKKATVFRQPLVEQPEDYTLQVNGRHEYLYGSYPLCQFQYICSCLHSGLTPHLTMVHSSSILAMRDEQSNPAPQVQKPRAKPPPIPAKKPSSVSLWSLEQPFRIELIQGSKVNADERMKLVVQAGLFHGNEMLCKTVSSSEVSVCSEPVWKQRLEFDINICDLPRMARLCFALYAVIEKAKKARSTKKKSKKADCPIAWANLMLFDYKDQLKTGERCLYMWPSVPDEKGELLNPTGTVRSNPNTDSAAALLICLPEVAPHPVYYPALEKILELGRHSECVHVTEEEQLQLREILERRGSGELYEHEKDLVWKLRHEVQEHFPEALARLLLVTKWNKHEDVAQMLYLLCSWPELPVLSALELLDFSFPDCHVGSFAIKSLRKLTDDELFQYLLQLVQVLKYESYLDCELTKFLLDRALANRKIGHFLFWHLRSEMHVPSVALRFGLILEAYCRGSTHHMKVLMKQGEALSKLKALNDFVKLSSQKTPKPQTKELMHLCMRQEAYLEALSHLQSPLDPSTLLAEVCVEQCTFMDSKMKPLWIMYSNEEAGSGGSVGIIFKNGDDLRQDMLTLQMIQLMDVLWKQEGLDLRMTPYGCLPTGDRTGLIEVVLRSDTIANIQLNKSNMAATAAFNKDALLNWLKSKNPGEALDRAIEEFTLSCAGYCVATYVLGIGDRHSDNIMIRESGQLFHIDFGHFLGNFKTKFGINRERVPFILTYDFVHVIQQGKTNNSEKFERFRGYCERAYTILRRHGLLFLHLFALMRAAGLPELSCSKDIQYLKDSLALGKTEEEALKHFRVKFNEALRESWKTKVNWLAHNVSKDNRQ
T1 sequence (P27986 whole entry partner): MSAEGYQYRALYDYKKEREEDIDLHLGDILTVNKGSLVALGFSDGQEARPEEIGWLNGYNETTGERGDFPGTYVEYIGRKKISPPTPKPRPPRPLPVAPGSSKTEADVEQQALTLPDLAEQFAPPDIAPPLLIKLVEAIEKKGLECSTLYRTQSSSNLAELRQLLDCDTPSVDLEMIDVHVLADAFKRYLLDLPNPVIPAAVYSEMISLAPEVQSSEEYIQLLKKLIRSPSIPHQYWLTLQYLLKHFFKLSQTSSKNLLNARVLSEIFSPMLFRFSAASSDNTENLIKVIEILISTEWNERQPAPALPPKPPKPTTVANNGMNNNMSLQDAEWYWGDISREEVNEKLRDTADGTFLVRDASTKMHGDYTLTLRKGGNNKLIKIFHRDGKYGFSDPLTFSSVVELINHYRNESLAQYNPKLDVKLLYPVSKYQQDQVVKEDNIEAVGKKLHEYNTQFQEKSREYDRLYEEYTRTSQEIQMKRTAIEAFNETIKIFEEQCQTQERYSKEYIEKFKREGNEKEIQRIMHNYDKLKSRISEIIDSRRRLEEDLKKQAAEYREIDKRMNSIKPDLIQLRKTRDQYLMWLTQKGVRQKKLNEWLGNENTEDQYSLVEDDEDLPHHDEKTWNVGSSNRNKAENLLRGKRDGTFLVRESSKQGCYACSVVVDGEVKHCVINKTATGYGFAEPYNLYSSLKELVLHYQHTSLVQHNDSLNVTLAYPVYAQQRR

Row | SMILES | hygroscopicity by DVS [1] | weight change between about 0-90% relative humidity [1] [%] | weight change in the sample over three cycles [1] [%] | solid form by XRPD after DVS [2] | solid form by XRPD after storage [3] | PI3K-delta inhibition in patients [4] | tolerability in patients [4]
1 | CC(C)Oc1ccc(-c2nn([C@@H](C)c3oc4ccc(F)cc4c(=O)c3-c3cccc(F)c3)c3ncnc(N)c23)cc1F [Example 1, amorphous umbralisib monotosylate] | hygroscopic | ~4 | < 1 | still amorphous | – | – | –
2 | CC(C)Oc1ccc(-c2nn([C@@H](C)c3oc4ccc(F)cc4c(=O)c3-c3cccc(F)c3)c3ncnc(N)c23)cc1F [Example 2, amorphous umbralisib monotosylate] | hygroscopic | ~4 | ~0.5 | still amorphous | still amorphous | – | –
3 | CC(C)Oc1ccc(-c2nn([C@@H](C)c3oc4ccc(F)cc4c(=O)c3-c3cccc(F)c3)c3ncnc(N)c23)cc1F [umbralisib, (S)-2-(1-(4-amino-3-(3-fluoro-4-isopropoxyphenyl)-1H-pyrazolo[3,4-d]pyrimidin-1-yl)ethyl)-6-fluoro-3-(3-fluorophenyl)-4H-chromen-4-one] | – | – | – | – | – | effective PI3K-delta inhibition | well-tolerated
